Several values for one entry are separate records, joined by “and”; a condition that tells them apart may be missing. Identical values can stand only once. Like-named read-outs stand apart in the source and are kept apart here. Ends that are not written are not given here.

Data set [1] relates to Mycobacterium tuberculosis MDR (clinically isolated multidrug resistant strain). The conditions noted are these: MDR (clinically isolated multidrug resistant strain, 24 h).
Experiment in data set [2]: not given
This is another data set of the same source.

Data set [3] relates to Mycobacterium tuberculosis MDR (clinically isolated multidrug resistant strain). The conditions noted are these: literature value ref Rastogi, et al., 1996 [55]; cited from earlier work.

Take “FWGALAKGALKLIPSLFSSFSKKD [Pin2, Pandinin 2, reference compound]”: the “MIC Mycobacterium tuberculosis MDR” value in data set [1] came to 33.1 µM. FWGALAKGALKLIGSLFSSFSKKD [Pin2 [G]] returned a maximum alpha-helical structure of 60%. For the same compound, in data set [1], the “MIC Mycobacterium tuberculosis MDR” value is reported as 18.7 µM. The alpha-helical structure in absence of TFE in data set [2] came out at 20%.

FWGLKGLKKFSKKL [Pin2 [14]]: in data set [1], the “MIC Mycobacterium tuberculosis MDR” value came out at 6 ± 1.8 µM.

FWGALAKGALKLIGPGSLFSSFSKKD [Pin2 [GPG]] returned a maximum alpha-helical structure of 60%.

In the case of FWGLKGLKGPGKFSKKL [Pin2 [17]], the “MIC Mycobacterium tuberculosis MDR” value in data set [1] turned out to be 14.8 ± 5.2 µM. Take `CC[C@@H](CO)NCCN[C@@H](CC)CO` [Ethambutol]: the “MIC Mycobacterium tuberculosis MDR” value in data set [3] is 20 µg/mL and 97 µM. In the case of `CO[C@H]1/C=C/O[C@@]2(C)Oc3c(C)c(O)c4c(O)c(c(/C=N/N5CCN(C)CC5)c(O)c4c3C2=O)NC(=O)/C(C)=C\C=C\[C@H](C)[C@H](O)[C@@H](C)[C@@H](O)[C@@H](C)[C@H](OC(C)=O)[C@@H]1C` [Rifampicin], the “MIC Mycobacterium tuberculosis MDR” value in data set [3] was 32 µg/mL and 38.9 µM.

The values above are taken from PMC4096598 (PLoS ONE, 2014).
